How the values were obtained:
[1] = molecular target: T1, Vasoactive intestinal polypeptide receptor 2 (Homo sapiens) (UniProt P41587); test: (§1) Antagonist activity at recombinant human N-terminal signal peptide/FLAG epitope-tagged VIPR2 expressed in HEK293 cells co-expressing CAMYEL assessed as inhibition of VIP-induced cAMP accumulation at 5 uM preincubated for 5 mins with luciferin, coelenterazine H followed by VIP addition measured after 5 mins by BRET assay relative to control; type: functional, cell-based
T1 sequence (whole entry): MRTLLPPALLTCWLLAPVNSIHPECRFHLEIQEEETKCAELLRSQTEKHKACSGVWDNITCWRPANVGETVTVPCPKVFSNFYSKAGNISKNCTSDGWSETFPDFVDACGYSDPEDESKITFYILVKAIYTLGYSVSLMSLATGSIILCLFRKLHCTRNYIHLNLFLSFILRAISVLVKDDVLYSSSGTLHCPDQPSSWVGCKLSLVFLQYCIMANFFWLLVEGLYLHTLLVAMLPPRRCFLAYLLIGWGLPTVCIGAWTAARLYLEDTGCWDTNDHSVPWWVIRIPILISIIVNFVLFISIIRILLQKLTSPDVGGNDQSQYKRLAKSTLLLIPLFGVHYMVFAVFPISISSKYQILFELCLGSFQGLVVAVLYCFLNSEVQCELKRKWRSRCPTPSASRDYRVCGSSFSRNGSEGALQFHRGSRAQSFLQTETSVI

[2] = molecular target: T1, Vasoactive intestinal polypeptide receptor 2 (Homo sapiens); test: as §1, with “at 0.5” for “at 5”; type: functional, cell-based
[3] = molecular target: T1, Vasoactive intestinal polypeptide receptor 2 (Homo sapiens); test: as §1, with “epitope-tagged Rluc8-fused” for “epitope-tagged”, “cells” for “cells co-expressing CAMYEL”, “human mVenus-beta-arrestin2 binding” for “cAMP accumulation”; type: cell-based
[4] = molecular target: T1, Vasoactive intestinal polypeptide receptor 2 (Homo sapiens); test: (§2) Antagonist activity at recombinant human N-terminal signal peptide/FLAG epitope-tagged Rluc8-fused VIPR2 expressed in HEK293 cells assessed as inhibition of VIP-induced human mVenus-beta-arrestin2 binding at 0.5 uM preincubated for 5 mins with luciferin, coelenterazine H followed by VIP addition measured after 5 mins by BRET assay relative to control; type: cell-based
[5] = molecular target: T1, Vasoactive intestinal polypeptide receptor 2 (Homo sapiens); test: as §1, with “at 1” for “at 5”; type: functional, cell-based
[6] = molecular target: T1, Vasoactive intestinal polypeptide receptor 2 (Homo sapiens); test: as §2, with “1” for “0.5”; type: cell-based

Row | SMILES | inhibition [1] | inhibition [2] | inhibition [3] | inhibition [4] | inhibition [5] | inhibition [6]
1 | CCN(CC)C(=O)c1ccc(S(=O)(=O)NC[C@@H](O)C[C@@H](Cc2ccccc2)C(=O)N[C@H]2c3ccccc3C[C@H]2O)cc1 | 31.8% | 2.5% | -1.2% | 0.3 to 15.3% | 5.9% | 3.1%
2 | CCCCCNc1ccc(S(=O)(=O)NC[C@@H](O)C[C@@H](Cc2ccccc2)C(=O)N[C@H]2c3ccccc3C[C@H]2O)cc1 | 19.1% | 10.8% | 11.3% | 2.8 to 15.2% | 19.1% | 2.3%
3 | O=C(N[C@H]1c2ccccc2C[C@H]1O)[C@H](Cc1ccccc1)C[C@H](O)CNS(=O)(=O)c1ccccc1C(F)(F)F | 24.7% | 23% | 21% | 10.7 to 22.9% | 18.8% | 24.8%
4 | CC(C)c1ccc(S(=O)(=O)NC[C@@H](O)C[C@@H](Cc2ccccc2)C(=O)N[C@H]2c3ccccc3C[C@H]2O)cc1 | 98.2% | 36.5% | 87.7% | 31.5 to 93% | 44.2% | 63.1%
5 | CNc1ccc(S(=O)(=O)NC[C@@H](O)C[C@@H](Cc2ccccc2)C(=O)N[C@H]2c3ccccc3C[C@H]2O)cc1 | -7.3% | -0.9% | 4.3% | -1.5 to -0.8% | 2% | 1.1%
6 | NC[C@@H](O)C[C@@H](Cc1ccccc1)C(=O)N[C@H]1c2ccccc2C[C@H]1O | 7.4 to 15.2% | 11.8% | 19.7% | 3.7 to 17.4% | 7.4 to 15.9% | 1.4%
7 | O=C(NC1CCCC1)[C@H](Cc1ccccc1)C[C@H](O)CNS(=O)(=O)c1ccc([N+](=O)[O-])cc1 | 4.7% | -2.1% | 9.2% | 6.95 to 17.4% | -4.9% | 17.1%
8 | O=C(NC[C@@H](O)C[C@@H](Cc1ccccc1)C(=O)N[C@H]1c2ccccc2C[C@H]1O)c1cccnc1 | 16.4% | 15.2% | -6.3% | -6.8 to 5.05% | 13.5% | -5.7%
9 | CC(=O)Nc1ccc(S(=O)(=O)NC[C@H](C[C@@H](Cc2ccccc2)C(=O)N[C@H]2c3ccccc3C[C@H]2OC(C)=O)OC(C)=O)cc1 | -5.8% | -8.7% | 9.7% | 0.5 to 1.95% | -8.7% | 0.2%
10 | O=C(CCCCl)NC[C@@H](O)C[C@@H](Cc1ccccc1)C(=O)N[C@H]1c2ccccc2C[C@H]1O | 15.9% | 16.4% | 21.1% | 18.5 to 19.2% | 18.2% | 24.3%
11 | O=C([C@@H](Cc1ccccc1)C[C@H](O)CNS(=O)(=O)c1ccc([N+](=O)[O-])cc1)N1CCCCC1 | 9.4% | 14.2% | 14.9% | 9.5 to 12.2% | 14.2% | 9.2%
12 | CCCNc1ccc(S(=O)(=O)NC[C@@H](O)C[C@@H](Cc2ccccc2)C(=O)N[C@H]2c3ccccc3C[C@H]2O)cc1 | 24.5% | -2.9% | 6.7% | 4.1 to 15.6% | 11.3% | 2.6%
13 | O=C(NC1CCCC1)[C@@H](Cc1ccccc1)C[C@H](O)CNS(=O)(=O)c1ccc([N+](=O)[O-])cc1 | -0.3% | -7.5% | 1.3% | -5.7 to 0.5% | -2.5% | -6.1%
14 | O=C(N[C@H]1c2ccccc2C[C@H]1O)[C@H](Cc1ccccc1)C[C@H](O)CNS(=O)(=O)c1ccccc1F | 28.3% | 28.6% | 52% | 5.3 to 40.1% | 22.3% | 28.3%
15 | CC1CCC(NC(=O)[C@@H](Cc2ccccc2)C[C@H](O)CNS(=O)(=O)c2ccc([N+](=O)[O-])cc2)CC1 (stereo partly specified) | 5.1% | -0.7% | -0.8% | 2.15 to 5.7% | 9.5% | -0.4%
16 | CC(=O)Nc1ccc(S(=O)(=O)NC[C@H](C[C@@H](Cc2ccccc2)C(=O)N[C@H]2c3ccccc3C[C@H]2O)OC(C)=O)cc1 | 3% | -4.3% | 10.5% | -9.8 to 6.75% | 32.3% | -1.8%

Row | SMILES | inhibition [1] | inhibition [2] | inhibition [3] | inhibition [4] | inhibition [5] | inhibition [6]
17 | Cc1cc(S(=O)(=O)NC[C@@H](O)C[C@@H](Cc2ccccc2)C(=O)N[C@H]2c3ccccc3C[C@H]2O)c(C)cc1Cl | 41.1% | 20.6% | 0.6% | 17.6 to 20.9% | 21.6% | 30.2%
18 | O=C(Nc1ccc(S(=O)(=O)NC[C@@H](O)C[C@@H](Cc2ccccc2)C(=O)N[C@H]2c3ccccc3C[C@H]2O)cc1)C1CC1 | 34.3% | -2.4% | -4.2% | 6.4 to 15.1% | 23% | -0.3%
19 | CC(C)(C)c1ccc(S(=O)(=O)NC[C@@H](O)C[C@@H](Cc2ccccc2)C(=O)N[C@H]2c3ccccc3C[C@H]2O)cc1 | 72.1% | 9.7% | 56.7% | 0% | 13% | 18.1%
20 | CN(C)c1ccc(S(=O)(=O)NC[C@@H](O)C[C@@H](Cc2ccccc2)C(=O)N[C@H]2c3ccccc3C[C@H]2O)cc1 | -3.4% | 9.4% | 8.7% | 2.65 to 4.2% | -1.4% | -1.6%
21 | C[C@H](CC(C)(C)C)NC(=O)[C@@H](Cc1ccccc1)C[C@H](O)CNS(=O)(=O)c1ccc([N+](=O)[O-])cc1 | 7.4% | 6.5% | 20.2% | 13.8 to 36.8% | 19.6% | 27.9%
22 | O=C(NN1CCCCC1)[C@H](Cc1ccccc1)C[C@H](O)CNS(=O)(=O)c1ccc([N+](=O)[O-])cc1 | 4.4% | 6.3% | 6.5% | -6.4 to 5.45% | 7.1% | 4.4%
23 | O=C(NC[C@@H](O)C[C@@H](Cc1ccccc1)C(=O)N[C@H]1c2ccccc2C[C@H]1O)c1cccc(Br)c1 | 20.3% | 17.4% | 5.2% | -3.8 to 12.8% | 18.5% | 6.8%
24 | C#CCCCC(=O)NC[C@@H](O)C[C@@H](Cc1ccccc1)C(=O)N[C@H]1c2ccccc2C[C@H]1O | 26.6% | 20.8% | 25.8% | 26.2 to 45.8% | 20.2% | 16.1%
25 | O=C(NC[C@@H](O)C[C@@H](Cc1ccccc1)C(=O)N[C@H]1c2ccccc2C[C@H]1O)C(Cl)Cl | 19.6% | 18.4% | 20% | 9.5 to 19.8% | 18.3% | 17.4%
26 | COc1ccc(S(=O)(=O)NC[C@@H](O)C[C@@H](Cc2ccccc2)C(=O)N[C@H]2c3ccccc3C[C@H]2O)cc1OC | 28.2% | 21.1% | 32% | 10.5 to 30.1% | 20.4% | 23.2%
27 | O=C([C@H](Cc1ccccc1)C[C@H](O)CNS(=O)(=O)c1ccc([N+](=O)[O-])cc1)N1CCOCC1 | 2.4% | -3.8% | -1.2% | -4.3 to 0.6% | -1.6% | 8.9%
28 | CC(C)(C)c1ccc(C(=O)NC[C@@H](O)C[C@@H](Cc2ccccc2)C(=O)N[C@H]2c3ccccc3C[C@H]2O)cc1 | 23.2% | 10.7% | 7.8% | 15.5 to 16.2% | 16% | 11.3%
29 | O=C(NC[C@@H](O)C[C@@H](Cc1ccccc1)C(=O)N[C@H]1c2ccccc2C[C@H]1O)C1CCCCCC1 | 17% | 18.4% | 10.5% | 13.8 to 24.4% | 17% | 16.4%
30 | O=C(CCN1C(=O)C=CC1=O)NC[C@@H](O)C[C@@H](Cc1ccccc1)C(=O)N[C@H]1c2ccccc2C[C@H]1O | 18.6% | 15.5% | -3.1% | 7.75 to 9.9% | 19% | 15.2%
31 | Cc1ccc(S(=O)(=O)NC[C@@H](O)C[C@@H](Cc2ccccc2)C(=O)N[C@H]2c3ccccc3C[C@H]2O)c(C)c1 | 23.3% | 14.1% | 31.8% | 2.8 to 27.6% | 10.9% | 20.3%

Reference: ChEMBL document CHEMBL3879914, “Inhibitors of central nervous system vasoactive inhibitory peptide receptor 2” (2014)
